Reference: ChEMBL document CHEMBL1201862, “PubChem BioAssay data set” (2004)
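Tested at 5 concentrations; 48 h exposure; 96-well plates; endpoints linearly interpolated, else capped at highest concentration. Abbreviation: GI50, concentration required for 50% inhibition of growth.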 Active and inactive are the calls of the source. Cut-off read from the data, not from the text of the source: active = GI50 up to about 1.1 µM and inactive = higher.

Key:
Assay in all cases: NCI anticancer screen, dose series, 48 h
SW-620 = tested on: SW-620
KM12 = tested on: KM12
A498 = tested on: A498
MCF7 = tested on: MCF7
HOP-92 = tested on: HOP-92
OVCAR-4 = tested on: OVCAR-4
M14 = tested on: M14
RXF 393 = tested on: RXF 393
SF-268 = tested on: SF-268
MOLT-4 = tested on: MOLT-4
UACC-257 = tested on: UACC-257
T47D = tested on: T47D
BT-549 = tested on: BT-549
OVCAR-3 = tested on: OVCAR-3
SK-OV-3 = tested on: SK-OV-3
COLO 205 = tested on: COLO 205
HT-29 = tested on: HT-29
MDA-MB-231 = tested on: MDA-MB-231
Hs-578T = tested on: Hs-578T

SMILES	GI50 (SW-620)	GI50 (KM12)	GI50 (A498)	GI50 (MCF7)	GI50 (HOP-92)	GI50 (OVCAR-4)	GI50 (M14)	GI50 (RXF 393)	GI50 (SF-268)	GI50 (MOLT-4)	GI50 (UACC-257)	GI50 (T47D)	GI50 (BT-549)	GI50 (OVCAR-3)	GI50 (SK-OV-3)	GI50 (COLO 205)	GI50 (HT-29)	GI50 (MDA-MB-231)	GI50 (Hs-578T)
O=C1c2cccnc2S(=O)(=O)N1c1ccc(Oc2ccccc2)cc1	> 100 µM (inactive)	> 100 µM (inactive)	> 100 µM (inactive)	> 100 µM (inactive)	> 100 µM (inactive)	> 100 µM (inactive)	> 100 µM (inactive)	69.7 µM (inactive)	> 100 µM (inactive)	92 µM (inactive)	92.7 µM (inactive)	> 100 µM (inactive)	> 100 µM (inactive)	> 100 µM (inactive)	41.4 µM (inactive)	> 100 µM (inactive)	> 100 µM (inactive)	> 100 µM (inactive)	–
CC1CC(C#N)=C2NCCN2C1=O (stereo not drawn)	31.9 µM (inactive)	> 100 µM (inactive)	–	20.8 µM (inactive)	–	> 100 µM (inactive)	19.4 µM (inactive)	> 100 µM (inactive)	> 100 µM (inactive)	> 100 µM (inactive)	78 µM (inactive)	> 100 µM (inactive)	> 100 µM (inactive)	> 100 µM (inactive)	> 100 µM (inactive)	22.1 µM (inactive)	> 100 µM (inactive)	> 100 µM (inactive)	> 100 µM (inactive)
COC(=O)C12OC(C)(C(CC(=O)OC(C)(C)C)C1=O)C1C(=O)N(c3ccccc3)C(=O)C12 (stereo not drawn)	> 100 µM (inactive)	> 100 µM (inactive)	> 100 µM (inactive)	–	> 100 µM (inactive)	> 100 µM (inactive)	> 100 µM (inactive)	> 100 µM (inactive)	> 100 µM (inactive)	> 100 µM (inactive)	> 100 µM (inactive)	> 100 µM (inactive)	> 100 µM (inactive)	> 100 µM (inactive)	> 100 µM (inactive)	> 100 µM (inactive)	> 100 µM (inactive)	> 100 µM (inactive)	> 100 µM (inactive)
C=CCCON(C(=O)OC(C)(C)C)C(C)(C)C	> 100 µM (inactive)	> 100 µM (inactive)	> 100 µM (inactive)	–	> 100 µM (inactive)	–	> 100 µM (inactive)	> 100 µM (inactive)	> 100 µM (inactive)	> 100 µM (inactive)	> 100 µM (inactive)	> 100 µM (inactive)	> 100 µM (inactive)	> 100 µM (inactive)	> 100 µM (inactive)	> 100 µM (inactive)	> 100 µM (inactive)	> 100 µM (inactive)	> 100 µM (inactive)
CC1(C)OC1COc1c2occc2cc2ccc(=O)oc12 (stereo not drawn)	> 100 µM (inactive)	> 100 µM (inactive)	> 100 µM (inactive)	> 100 µM (inactive)	> 100 µM (inactive)	> 100 µM (inactive)	> 100 µM (inactive)	> 100 µM (inactive)	> 100 µM (inactive)	79.3 µM (inactive)	> 100 µM (inactive)	79.1 µM (inactive)	38.8 µM (inactive)	> 100 µM (inactive)	–	> 100 µM (inactive)	> 100 µM (inactive)	> 100 µM (inactive)	> 100 µM (inactive)
CC1CC(=O)NC2CC1C2(C)C (stereo not drawn)	> 100 µM (inactive)	> 100 µM (inactive)	–	> 100 µM (inactive)	> 100 µM (inactive)	> 100 µM (inactive)	> 100 µM (inactive)	> 100 µM (inactive)	> 100 µM (inactive)	> 100 µM (inactive)	> 100 µM (inactive)	> 100 µM (inactive)	> 100 µM (inactive)	> 100 µM (inactive)	–	> 100 µM (inactive)	> 100 µM (inactive)	> 100 µM (inactive)	> 100 µM (inactive)
CC[n+]1[b-](C(C)(C)C)n(/N=C(\C)C(C)(C)C)[b-](C(C)(C)C)[n+]1CC	> 100 µM (inactive)	> 100 µM (inactive)	–	> 100 µM (inactive)	–	> 100 µM (inactive)	> 100 µM (inactive)	> 100 µM (inactive)	> 100 µM (inactive)	> 100 µM (inactive)	> 100 µM (inactive)	> 100 µM (inactive)	> 100 µM (inactive)	> 100 µM (inactive)	–	–	> 100 µM (inactive)	> 100 µM (inactive)	> 100 µM (inactive)
Cc1ccc(NNc2cc(=O)[nH]c(=O)[nH]2)cc1Cl	14.4 µM (inactive)	27.3 µM (inactive)	> 100 µM (inactive)	–	14.4 µM (inactive)	14.7 µM (inactive)	13.7 µM (inactive)	16.5 µM (inactive)	43.2 µM (inactive)	4.98 µM (inactive)	17.5 µM (inactive)	9.95 µM (inactive)	41.1 µM (inactive)	14.8 µM (inactive)	41.4 µM (inactive)	16.6 µM (inactive)	15 µM (inactive)	15.8 µM (inactive)	83.2 µM (inactive)
CCC1(CC)C(=O)N(C(=O)c2ccc(C)cc2)N(C(=O)c2ccc(C)cc2)C1=O	29.8 µM (inactive)	50.9 µM (inactive)	–	45.5 µM (inactive)	–	> 75 µM (inactive)	> 75 µM (inactive)	> 75 µM (inactive)	27.7 µM (inactive)	20 µM (inactive)	> 75 µM (inactive)	36.1 µM (inactive)	> 75 µM (inactive)	17.7 µM (inactive)	> 75 µM (inactive)	> 75 µM (inactive)	> 75 µM (inactive)	> 75 µM (inactive)	> 75 µM (inactive)
O=c1[nH]c2nccnc2c2c([N+](=O)[O-])cccc12	> 100 µM (inactive)	> 100 µM (inactive)	> 100 µM (inactive)	> 100 µM (inactive)	–	> 100 µM (inactive)	> 100 µM (inactive)	58.2 µM (inactive)	> 100 µM (inactive)	> 100 µM (inactive)	–	20.5 µM (inactive)	65.2 µM (inactive)	> 100 µM (inactive)	> 100 µM (inactive)	> 100 µM (inactive)	> 100 µM (inactive)	–	55.5 µM (inactive)
CCC1=C(C)C(=O)N/C1=C\c1[nH]c(C)c([C@H](C)CCN)c1C	16.6 µM (inactive)	15.7 µM (inactive)	18.6 µM (inactive)	15.5 µM (inactive)	14.6 µM (inactive)	12.8 µM (inactive)	15.8 µM (inactive)	–	16.2 µM (inactive)	34 µM (inactive)	–	9.98 µM (inactive)	16.3 µM (inactive)	16 µM (inactive)	16.9 µM (inactive)	16.4 µM (inactive)	15.7 µM (inactive)	17.4 µM (inactive)	11.9 µM (inactive)
c1ccc2c(c1)[nH]c1nc3cc(-c4ccc5nc6c(nc5c4)[nH]c4ccccc46)ccc3nc12	> 100 µM (inactive)	> 100 µM (inactive)	> 100 µM (inactive)	20.5 µM (inactive)	–	> 100 µM (inactive)	> 100 µM (inactive)	> 100 µM (inactive)	> 100 µM (inactive)	0.166 µM (active)	> 100 µM (inactive)	> 100 µM (inactive)	> 100 µM (inactive)	–	> 100 µM (inactive)	–	> 100 µM (inactive)	> 34.5 µM (inactive)	> 100 µM (inactive)
CN(C)c1ccc(/C=N\NC(=O)Nc2cccc3ccccc23)cc1	6.11 µM (inactive)	2.61 µM (inactive)	8.99 µM (inactive)	3.86 µM (inactive)	20.3 µM (inactive)	15.5 µM (inactive)	5.37 µM (inactive)	20.7 µM (inactive)	13 µM (inactive)	4.56 µM (inactive)	3.74 µM (inactive)	2.73 µM (inactive)	11.7 µM (inactive)	–	–	4.99 µM (inactive)	2.62 µM (inactive)	12.3 µM (inactive)	4.17 µM (inactive)
CCOC(=O)c1c(N=C(S)Nc2ccc(Cl)cc2)sc2c1CCN(C)C2	–	> 100 µM (inactive)	> 100 µM (inactive)	> 100 µM (inactive)	–	–	> 100 µM (inactive)	32.7 µM (inactive)	> 100 µM (inactive)	41.8 µM (inactive)	> 100 µM (inactive)	> 100 µM (inactive)	78.9 µM (inactive)	74 µM (inactive)	–	> 100 µM (inactive)	> 100 µM (inactive)	> 100 µM (inactive)	> 100 µM (inactive)
COC(=O)NC1(NC(=O)OC)NC(=O)c2cc(OC)c(OC)c(OC)c2N1	18.2 µM (inactive)	7.19 µM (inactive)	32.2 µM (inactive)	30.3 µM (inactive)	–	> 100 µM (inactive)	21.8 µM (inactive)	–	28.1 µM (inactive)	63.2 µM (inactive)	> 100 µM (inactive)	43.5 µM (inactive)	22.4 µM (inactive)	54.1 µM (inactive)	2.62 µM (inactive)	18.7 µM (inactive)	36.9 µM (inactive)	36.2 µM (inactive)	13.3 µM (inactive)
COC(=O)c1cn(CCCCO)nn1	> 100 µM (inactive)	> 100 µM (inactive)	–	> 100 µM (inactive)	> 100 µM (inactive)	> 100 µM (inactive)	–	> 100 µM (inactive)	> 100 µM (inactive)	> 100 µM (inactive)	> 100 µM (inactive)	3.65 µM (inactive)	> 100 µM (inactive)	–	–	> 100 µM (inactive)	> 100 µM (inactive)	> 100 µM (inactive)	> 100 µM (inactive)
